Series [1] is described as follows: Metabolite profiling of plasma (GC-MS and LC-MS/MS) of rats treated with APAP vs. vehicle. The settings on record: for plasma metabolite in treated (1250 mg/kg) vs. untreated animals: FIG. 1, rats, 1250 mg/kg APAP vs. vehicle, most obvious at 6 and 24 hours; for 1250 mg vs. 0 mg (6 h) Ratio / 1250 mg vs. 0 mg (3 d) Ratio / 1250 mg vs. 0 mg (7 d) Ratio: rat plasma metabolite level, treated with 1250 mg/kg APAP vs. untreated, ANOVA; for 1250 mg vs. 0 mg (3 d) Ratio: 3 days; for 1250 mg vs. 0 mg (7 d) Ratio: 7 days.
Protocol: (§1) Animals accessed feed and water ad libitum.
(§2) For mass spectrometry-based MxP™ Broad Profiling analyses samples were extracted by a proprietary method yielding a lipid and polar fraction which were used for GC-MS (gas chromatography-mass spectrometry) and LC-MS/MS (liquid chromatography-MS/MS) analyses, respectively. For GC-MS analytics the samples were sequentially derivatized before measurement and the non-polar fraction was treated with methanol under acidic conditions to yield the fatty acid methyl esters derived from both free fatty acids and hydrolyzed complex lipids. The non-polar and polar fractions were further derivatized before GC-MS analysis (Roessner et al., Technical advance: simultaneous analysis of metabolites in potato tuber by gas chromatography-mass spectrometry. Plant J. 2000; 23:131-42). In LC-MS/MS analysis a metanomics proprietary technology was applied which allows target and high sensitivity MRM (Multiple Reaction Monitoring) profiling in parallel to full scan analyses (patent WO2003073464). For LC-MS analysis, both fractions were reconstituted in appropriate solvent mixtures. HPLC (high-performance liquid chromatography) was performed on reversed phase separation columns. Data were normalized by the corresponding median of reference samples which derived from a pool formed from aliquots of all samples to account for inter- and intra-instrumental variation. Therefore, pool-normalized semi-quantitative metabolite data were obtained.

The conditions of series [2]: rat, in vivo.
Protocol: as §1, §2
The subject of a further series is mouse liver tissue. Particulars: cited from earlier work.
In the next series the test system is mouse/rat liver tissue. The settings on record: after administration of hepatotoxic doses of carbon tetrachloride; cited from earlier work.

Where two headings read alike, the source gives them in different places.

On to `O[C@H]1[C@H](O)[C@@H](O)[C@H](O)[C@@H](O)[C@H]1O` [myo-Inositol, lipid fraction, myo-inositol], for which, in series [1], the “plasma metabolite in treated (1250 mg/kg) vs. untreated animals” value is on record as “increased”, the “1250 mg vs. 0 mg (6 h) Ratio” value came out at 1.28, the “1250 mg vs. 0 mg (3 d) Ratio” value was found to be 1.04 and the “1250 mg vs. 0 mg (7 d) Ratio” value was 1.02.

As for `CC(=O)Nc1ccc(O)cc1` [APAP, N-(4-hydroxyphenyl)acetamide, reference compound], the “differences between the test and the control samples” value in series [2] is “no statistically significant differences”.

For `NCCOP(=O)(O)O` [O-Phosphoethanolamine, o-phosphoethanolamine], in series [1], the “plasma metabolite in treated (1250 mg/kg) vs. untreated animals” value is “increased”, the “1250 mg vs. 0 mg (6 h) Ratio” value was 1.52, the “1250 mg vs. 0 mg (3 d) Ratio” value turned out to be 1.06 and the “1250 mg vs. 0 mg (7 d) Ratio” value came to 1.07.

Regarding `NCCCCN` [Putrescine, Butane-1,4-diamine], the “tissue levels of putrescine” value in the series on mouse liver tissue (18 hours after administration of acetaminophen) is “Elevated”; in the series with mouse liver tissue (tissue samples obtained after 6 and 12 hours) it was “no elevated putrescine levels”. Further, the “putrescine in mouse liver tissue after treatment with acetaminophen” value in the series on mouse liver tissue (mouse liver tissue) is given as “increased”. Also, the “putrescine in mouse/rat liver tissue” value in the series on mouse/rat liver tissue was “increased”. Further, the “plasma metabolite in treated (1250 mg/kg) vs. untreated animals” value in series [2] was “increased”.

Turning to Lysophosphatidylcholine (C18:1), in series [1], the “plasma metabolite in treated (1250 mg/kg) vs. untreated animals” value is “decreased”, the “1250 mg vs. 0 mg (6 h) Ratio” value is recorded as 0.95, the “1250 mg vs. 0 mg (3 d) Ratio” value is given as 1.10 and the “1250 mg vs. 0 mg (7 d) Ratio” value was 1.02.

Source of the values: patent US20170176477A1 (Metanomics Health GmbH, priority 2012, published 2017).
